{"source": "patent US5063222A", "about": "“Antiinflammatory dexamethasone 17α-cyclopropanecarboxylates with reduced systemic activity” (SS Pharmaceutical Co., Ltd., priority 1989, dated 1991)", "key": {"[1]": {"tested_on": "carrageenin edema of the paw of rats", "assay": "Carrageenin paw edema, local (into paw) administration, edema inhibition ED40; local selectivity (A)/(B)", "assay_type": "in vivo, Wister male rats", "details": "ratio of ED40 systemic to ED40 local", "experimental": "(§1) Using Wister male rats weighting 130-150 g, each group consisting of 6 rats, the local selectivity of the anti-inflammatory action was investigated by the systemic and local administration of the compounds of the present invention and comparative compounds.\nFor the local administration test, the test compound suspended in 1% carrageenin was subcutaneously injected into a paw in the rats at doses of 0.01, 0.03, and 1.0 μg/paw (0.1 ml/paw). Three hours after the carrageenin injection, the volume of the edema was compared with the corresponding value of the control group, thus obtaining the edema inhibition rate, from which ED40 was determined.\nThe ratio of the ED40 values thus obtained was taken for the evaluation of the local selectivity. [formula]\nThe higher the value, the greater is the selectivity."}, "[2]": {"tested_on": "human skin", "assay": "Skin vessel constriction activity (local anti-inflammatory effect on human skin)", "assay_type": "in vivo, human (healthy male subjects)", "details": "probit method", "experimental": "Skin vessel constriction effects on human skin of the present invention were investigated according to the following method. Dexamethasone 17,21-dipropionate which is known as a very strong anti-inflammatory agent for external application was used as a comparative compound.\nFifteen (15) healthy male subjects who were free from any skin disease anamnesis, such as eczema, dermatosis, or the like, received the test. Test compounds were diluted with 95% ethanol to make 6 sample solutions with different concentrations; highest concentration: 1×10^-2, lowest concentration: 1×10^-7. A strap to which acryl cells (diameter: 12 mm, thickness: 2 mm, height, 3 mm) were fixed was applied to the back of each subject. The test compound solution was then dropped with a pippet, 0.02 ml per drop, according to a key-code allocated at random. After drying by air, the strap was peeled off. The coated area was covered with a polyvinylidene chloride film, of which the periphery was fixed with a strap for the patch test. The period of time during which the covering was applied was 16 hours. The judgment was made according to the following standard four times at 1, 2, 5, and 8 hours after the removal of the film.\n++: The coated skin was strongly pale.\n+: The coated skin was distinctly pale.\n±: The coated skin was slightly pale.\nThe results were analyzed by the probit method to obtain the ED50 value (≥+) at which the coated area was clearly pale. The results are shown in Table 2, in which the relative value for the compounds of the present invention determined by taking the ED50 value for dexamethasone 17,21-dipropionate as 100 are given in parentheses."}, "[3]": {"tested_on": "carrageenin edema of the right hind paw of rats", "assay": "Carrageenin paw edema, systemic (subcutaneous, back) administration, edema inhibition ED40", "assay_type": "in vivo, Wister male rats", "details": "Rattus norvegicus, sc; s.c. into back, 60 min before 1% carrageenin; edema 3 hours after carrageenin", "experimental": "as §1\nIn the evaluation of systemic administration, a test compound suspended into 1% gum arabic was subcutaneously injected into back of rats at doses of 0.01, 0.03, 0.1, and 0.3 mg/kg (5 ml/kg). After 60 minutes following the administration, 1% carrageenin (0.1 ml) was injecte into the plantar surface of the right hind paw. The paw volume was measured with a plethysmometer before and 3 hours after the carrageenin injection. The value was compared with the corresponding value of the control group, thus obtaining the edema inhibition rate, from which ED40 was determined."}, "[4]": {"details": "1 hour after removal of film (16 hours covering)"}, "[5]": {"details": "2 hours after removal of film (16 hours covering)"}, "[6]": {"details": "5 hours after removal of film (16 hours covering)"}, "[7]": {"details": "8 hours after removal of film (16 hours covering)"}}, "data": [{"molecule": "C[C@@H]1C[C@H]2[C@@H]3CCC4=CC(=O)C=C[C@]4(C)[C@@]3(F)[C@@H](O)C[C@]2(C)[C@@]1(OC(=O)C1CC1)C(=O)CO", "note": "[Compound No. 1, 9α-fluoro-11β,17,21-trihydroxy-16α-methylpregna-1,4-diene-3,20-dione 17-cyclopropanecarboxylate]", "values": [{"measurement": "Local Selectivity (A)/(B)", "setting": "[1]", "result": 3.50}, {"measurement": "ED50 value (≥ +) concentration", "setting": "[2]; [4]", "result": "1.45 × 10^-4%"}, {"measurement": "ED50 value (≥ +) concentration", "setting": "[2]; [5]", "result": "1.19 × 10^-4%"}, {"measurement": "ED50 value (≥ +) concentration", "setting": "[2]; [6]", "result": "7.29 × 10^-4%"}, {"measurement": "ED50 value (≥ +) concentration", "setting": "[2]; [7]", "result": "1.24 × 10^-2%"}, {"measurement": "ED40", "setting": "[3]", "result": 0.28, "unit": "mg/kg"}]}, {"molecule": "C[C@@H]1C[C@H]2[C@@H]3CCC4=CC(=O)C=C[C@]4(C)[C@@]3(F)[C@@H](O)C[C@]2(C)[C@@]1(OC(=O)C1CC1)C(=O)COC(=O)C1CC1", "note": "[Compound No. 4, 9α-fluoro-11β,17,21-trihydroxy-16α-methylpregna-1,4-diene-3,20-dione 17,21-dicyclopropanecarboxylate]", "values": [{"measurement": "Local Selectivity (A)/(B)", "setting": "[1]", "result": 3.95}, {"measurement": "ED50 value (≥ +) concentration", "setting": "[2]; [4]", "result": "5.10 × 10^-4%"}, {"measurement": "ED50 value (≥ +) concentration", "setting": "[2]; [5]", "result": "3.17 × 10^-4%"}, {"measurement": "ED50 value (≥ +) concentration", "setting": "[2]; [6]", "result": "2.00 × 10^-3%"}, {"measurement": "ED50 value (≥ +) concentration", "setting": "[2]; [7]", "result": "1.36 × 10^-2%"}, {"measurement": "ED40", "setting": "[3]", "result": 0.83, "unit": "mg/kg"}]}, {"molecule": "CCCC(=O)OCC(=O)[C@@]1(OC(=O)CCC)[C@H](C)C[C@H]2[C@@H]3CCC4=CC(=O)C=C[C@]4(C)[C@@]3(F)[C@@H](O)C[C@@]21C", "note": "[dexamethasone-17,21-dibutylate, reference compound]", "values": [{"measurement": "Local Selectivity (A)/(B)", "setting": "[1]", "result": 2.00}, {"measurement": "ED40", "setting": "[3]", "result": 0.34, "unit": "mg/kg"}]}, {"molecule": "CCC(=O)OCC(=O)[C@@]1(OC(=O)CC)[C@H](C)C[C@H]2[C@@H]3CCC4=CC(=O)C=C[C@]4(C)[C@@]3(F)[C@@H](O)C[C@@]21C", "note": "[dexamethasone-17,21-dipropionate, Dexamethasone 17,21-dipropionate, reference compound]", "values": [{"measurement": "ED50 value (≥ +) concentration", "setting": "[2]; [4]", "result": "5.48 × 10^-4%"}, {"measurement": "ED50 value (≥ +) concentration", "setting": "[2]; [5]", "result": "4.11 × 10^-4%"}, {"measurement": "ED50 value (≥ +) concentration", "setting": "[2]; [6]", "result": "8.62 × 10^-3%"}, {"measurement": "ED50 value (≥ +) concentration", "setting": "[2]; [7]", "result": "3.19 × 10^-2%"}]}, {"molecule": "CCCC(=O)O[C@]1(C(=O)CO)[C@H](C)C[C@H]2[C@@H]3CCC4=CC(=O)C=C[C@]4(C)[C@@]3(F)[C@@H](O)C[C@@]21C", "note": "[dexamethasone-17-butylate, reference compound]", "values": [{"measurement": "Local Selectivity (A)/(B)", "setting": "[1]", "result": 0.62}, {"measurement": "ED40", "setting": "[3]", "result": 0.18, "unit": "mg/kg"}]}]}
